“Also recorded” adds a separate entry of the source. Like-named read-outs stand apart in the source and are kept apart here. Non-standard residues stand in square brackets, D forms with d. Residues, ends and D or L forms follow the SMILES beside them. *: point of attachment. Dmt = Cc1cc(O)cc(C)c1C[C@H](N)C(=O)O; X1 = CCCCCCCCCCCCCCCCCCO*

The nature of series [1]: In vivo kinetics after intravitreal injection of bolus implant in rabbit eyes (LC/MS, retina). The following applies: for residual drug in recovered bolus/implants: bolus formulation of native peptide.
A further series relates to carboxyesterase. The series is described as follows: Cleavage of prodrug ester bond by carboxyesterase in vitro. It is filed as in vitro ADME. Conditions: 37° C., carboxyesterase 0.1 μg/mL. As to the method: One specific example of EY005-prodrug includes EY005-stearyl (depicted in FIG. 27A), wherein EY005 is linked via ester bond to stearyl alcohol, one member from the group of long-chain saturated fatty alcohols. On cleavage of the ester bond, the prodrug EY005-stearyl releases the EY005 MTT. […] Upon addition of EY005-stearyl prodrug to phosphate-buffered saline solution at 37° C. without esterase, the ester bond of the EY005-stearyl prodrug cleaves more slowly (˜36 hours) by hydrolysis (FIG. 28C).
EY005-stearyl was incubated at 37° C. in vitro with carboxyesterase (0.1 μg/mL), to simulate the ocular physiologic environment and the type of esterase that is readily abundant within the vitreous. […] Upon addition of EY005-stearyl prodrug to phosphate-buffered saline solution at 37° C. without esterase, the ester bond of the EY005-stearyl prodrug cleaves more slowly by hydrolysis (FIG. 28C).
In some examples of prodrugs, cleavage and release of the free API can be assessed in an in vitro release assay, wherein the prodrug is incubated in a solution containing carboxyesterase (or other natural or synthetic esterase), isolated vitreous recovered from animal (e.g., pig, rabbit, etc.), or isolated vitreous recovered from human donor, at […], […], or other temperatures. […]

The nature of series [2]: In vitro to in vivo correlation of fluocinolone acetonide release, rabbit eyes. The following applies: formulations in multiphasic colloidal suspension. How it is done:
Properties of Kd and binding capacity were calculated for each FA-complex particulate, in dispersal medium (FIG. 15). […] FIG. 16B illustrates other formulations, wherein varying the ratio of drug-complex particulates altered the kinetics of release, as the proportion of complexation agent (KET) with higher avidity (Kd) was increased across the formulations, for a given payload of FA.
The depicted curves reflect in vitro release profiles, while the individual colored points, circled, represent in vivo release data from rabbit eyes.

For series [3] the following is noted: flowable bolus implant, multiple time points.
The nature of series [4]: Sunitinib malate bio-erodible tube implant, drug levels in retina tissue of rabbits. It counts as in vivo, rabbit. From the text: In another example, formulations of the hydrophilic small molecule sunitinib malate in the multiphasic colloidal suspension were developed (FIGS. 20-22). […] Complexation of sunitinib to selected complexation agents was visually confirmed by admixture and pulldown of sunitinib-complex particulates, which was confirmed since by the yellow-orange color of particulates (sunitinib has orange coloration) (FIG. 21).
In another example, formulations of the hydrophilic small molecule sunitinib malate in the multiphasic colloidal suspension were developed. […] Complexation of sunitinib to selected complexation agents was visually confirmed by admixture and pulldown of sunitinib-complex particulates, which was confirmed since by the yellow-orange color of particulates (sunitinib has orange coloration). Formulations of sunitinib with two-phase release kinetics in a bio-erodible tube formulation of sunitinib multiphasic colloidal suspension were designed and manufactured. […] Alteration of the ratio of sunitinib-complex particulates reduced the amount of drug released during initial burst and lowered the steady state release.

Consider `Cc1cc(O)cc(C)c1C[C@H](NC(=O)[C@H](N)CCCNC(=N)N)C(=O)N[C@@H](CCCCN)C(=O)N[C@@H](Cc1ccccc1)C(=O)O` [EY005, H-d-Arg-DMT-Lys-Phe] (H-[dR][Dmt]KF-OH; C-terminus assumed), for which the “time beyond which no detectable tissue levels” value in series [1] (bolus formulation of native API administered into the vitreous) is at most 21 days. Moreover, the “residual drug in recovered bolus/implants” value in series [1] (rabbits, listed as EY005 native peptide) was “Recovered implants contained no EY005 native peptide”; in series [1] (rabbits, listed as native API) it was “no residual drug in the recovered bolus”. In series [1] (by week 3.5, identical bolus formulation, rabbits), the tissue concentrations entry is reported as “nearly undetectable”.

Turning to `CCCCCCCCCCCCCCCCCCOC(=O)[C@H](Cc1ccccc1)NC(=O)[C@H](CCCCN)NC(=O)[C@H](Cc1c(C)cc(O)cc1C)NC(=O)[C@H](N)CCCNC(=N)N` [EY005-stearyl, H-d-Arg-DMT-Lys-Phe(O)-stearyl] (H-[dR][Dmt]KF-X1), in the series with carboxyesterase, the “cleavage of the prodrug ester bond, releasing EY005 (HPLC)” value was “rapid cleavage of the prodrug ester bond”.

For `CC1(C)O[C@@H]2C[C@H]3[C@@H]4C[C@H](F)C5=CC(=O)C=C[C@]5(C)[C@@]4(F)[C@@H](O)C[C@]3(C)[C@]2(C(=O)CO)O1` [FA, fluocinolone acetonide], the “correlation between drug release in vitro and in vivo (retina tissue levels)” value in series [2] is on record as “strong correlation”; in series [2] (listed as fluocinolone acetonide), “good in vitro to in vivo correlation”.

On to `CNC(=O)c1ccccc1Sc1ccc2c(/C=C/c3ccccn3)n[nH]c2c1` [axitinib], for which the “drug levels in retina tissue” value in series [3] is listed as “detectable drug levels in retina tissue”.

For the compound `CCN(CC)CCNC(=O)c1c(C)[nH]c(/C=C2\C(=O)Nc3ccc(F)cc32)c1C` [sunitinib malate], in series [4] (bio-erodible tube formulation), the “release kinetics (pharmacokinetics) and tissue levels of tube formulation” value is “produced desired tissue levels and durability of release; also recorded: two-phase release with high initial burst, followed by steady-state release”. Moreover, the “drug levels in retina tissue” value in series [4] (low and high dose implants, multiple time points) is listed as “detectable drug levels in retina tissue”.

Values taken from patent publication US20240269320A1, “EXTENDED RELEASE DRUG DELIVERY SYSTEM FOR OCULAR DRUGS AND METHODS OF USE” (Eyedea Bio, LLC, priority 2021, published 2024).
